{"source": "patent US20100310660A1", "about": "“DRY POWDER MICROPARTICLES FOR PULMONARY DELIVERY” (TAIPEI MEDICAL UNIVERSITY, priority 2009, published 2010)", "test_system": "A549 cells", "assay": "Photocytotoxicity (MTT assay after LED irradiation)", "type": "cell-based, Human", "settings": "0.5 μg/ml Hp, 3 hours", "procedure": "Human lung adenocarcinoma A549 cells were kept in a humidified incubator containing 5% CO2 at 37° C. A549 cells were cultured in DMEM supplemented with 10% fetal bovine serum (FBS) and 1% penicillin-streptomycin (GIBCO BRL, USA). The cells were routinely grown in tissue culture flask and harvested with a solution of 1% trypsin while in the logarithmic phase of growth. The cells were kept in the above culture conditions for experiments.\nA549 cells were grown in 96-well plates at a density of 8×10^3 cells/well for 24 hours. […] The cells were incubated for 3 hours (protection from light) and washed once with 100 μl PBS/well. The no phenol red medium (100 μl/well) was added to the cells and then irradiated with various doses of light using LED (635±5 nm, 60 mW/cm^2) light source. After light irradiation, the original medium was removed and DMEM containing 10% FBS was added to each well. Twenty-four hours later, cell survival was measured using an MTT [3(4,5-dimethyl-thiazoyl-2-yl) 2,5 diphenyl-tetrazolium bromide] assay. The MTT assay was based on the activity of mitochondria dehydrogenases wherein a water-soluble tetrazolium salt was reduced to a purple insoluble formazan product. The amount of MTT formazan product was analyzed with spectrophotometer at the absorbance of 570 nm.", "note": "Counter-ions that a name gives are not always drawn.", "data": [{"molecule": "CC1=C(CCC(=O)O)c2cc3[nH]c(cc4nc(cc5[nH]c(cc1n2)c(C)c5C(C)O)C(C)=C4C(C)O)c(C)c3CCC(=O)O", "note": "(centres unmarked) [Hp, Hematoporphyrin Dihydrochloride]", "values": [{"measurement": "cells alive", "setting": "irradiation at 4 J/cm2", "value": 89, "unit": "%"}, {"measurement": "cells alive", "setting": "irradiation at 12 J/cm2", "value": 75, "unit": "%"}]}]}
